Measurements taken from patent US7893098B2, “Pyrrole and pyrazole DAAO inhibitors” (Sepracor Inc., priority 2003, dated 2011).

Biological target: Purified pig DAAO (Sus scrofa, UniProt P00371)
Sequence (P00371 whole entry): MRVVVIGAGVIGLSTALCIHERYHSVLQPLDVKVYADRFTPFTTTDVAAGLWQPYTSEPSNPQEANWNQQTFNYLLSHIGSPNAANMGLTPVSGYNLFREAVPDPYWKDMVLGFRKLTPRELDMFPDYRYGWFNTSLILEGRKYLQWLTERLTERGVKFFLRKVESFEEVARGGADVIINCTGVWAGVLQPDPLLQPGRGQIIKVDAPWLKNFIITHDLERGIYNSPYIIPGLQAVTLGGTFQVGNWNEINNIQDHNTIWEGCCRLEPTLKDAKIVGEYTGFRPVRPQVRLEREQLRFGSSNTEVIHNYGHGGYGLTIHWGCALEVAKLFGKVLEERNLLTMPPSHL
Assay: In vitro measurement of DAAO activity (Amplex Red H2O2 / phenylglycine assay)
Type: biochemical
Conditions: read-out: Inhibition of DAAO, IC50
Experimental: Purified pig DAAO, added to a buffered mixture of 50 mM D-Serine produces H202 in stoichiometric amounts for each D-Serine molecule oxidized. H202 production can be monitored with a commercially available dye Amplex Red, which in the presence of H202, is converted to the fluorescent product resorufin. For each described inhibitor, the fluorescence was also measured during additions of 80 μM H202 in the absence of DAAO, to control for artifactual inhibition of the dye conversion, and to quantify the amount of H202 produced. In an alternative assay of DAAO activity, the purified pig DAAO is added to buffered mixture of 1 mM phenylglycine in the presence of compounds. The activity of DAAO is monitored spectrophotometrically by its enzymatic conversion of phenylglycine to benzoylformic acid with optical absorption at 252 nm.
Inhibitors of DAAO's enzymatic cycle were serially diluted to reduce the level of inhibition. The parameters of a non-linear equation were adjusted to fit the resulting series of inhibition levels to extrapolate the concentration of compound where 50% inhibition is achieved (IC50). These numbers are averaged for the number (n) of independent measurements (on separate days) of the inhibition.
In the case of `O=C(O)c1cc(CCc2ccccc2)c[nH]1`, the IC50 is reported as less than 1 µM.
With `CC1CCc2c(C(=O)O)n[nH]c2C1` (centres unmarked) the IC50 was less than 100 µM.
With `O=C(O)c1n[nH]c2c1CCCC2` the IC50 was less than 1 µM.
In the case of `CC(C)c1cc(C(=O)O)n[nH]1`, the IC50 is reported as less than 1 µM.
For `O=C(O)c1cc([N+](=O)[O-])[nH]n1`, the IC50 was less than 1 µM.
Work on `O=C(O)c1n[nH]cc1[N+](=O)[O-]` yielded an IC50 of less than 1 µM.
Work on `CC1CCCc2c(C(=O)O)n[nH]c21` (centres unmarked) yielded an IC50 of less than 10 µM.
`O=C(O)c1cc(CCc2ccccc2)on1` showed an IC50 of less than 100 µM.
`O=C(Cc1ccc(Cl)cc1)c1c[nH]c(C(=O)O)c1` gave an IC50 of less than 100 µM.
Molecule `Cc1cc(C(=O)O)no1` has an IC50 of less than 100 µM.
For `O=C(O)c1n[nH]c2c1CCCC2C1CCCCC1` (centres unmarked), the IC50 was less than 100 µM.
For `O=C(O)c1cc[nH]n1`, the IC50 was less than 100 µM.
With `CCCCCCCCCCC(=O)c1c[nH]c(C(=O)O)c1` the IC50 was less than 100 µM.
Molecule `O=C(O)c1n[nH]c2c1CCCCCC2` has an IC50 of less than 10 µM.
Molecule `Cc1cc(C(=O)O)n[nH]1` has an IC50 of less than 10 µM.
Molecule `O=C(O)c1ccc[nH]1` has an IC50 of less than 10 µM.
`O=C(O)c1cc2c([nH]1)CCCC2` showed an IC50 of less than 10 µM.
In the case of `O=C(O)c1n[nH]c2c1COCC2`, the IC50 is reported as less than 10 µM.
With `CC(C)C1CCc2[nH]nc(C(=O)O)c2C1` (centres unmarked) the IC50 was less than 100 µM.
In the case of `O=C(O)c1n[nH]c2c1CCCC2CCc1ccccc1` (centres unmarked), the IC50 is reported as less than 100 µM.
`O=C(O)c1n[nH]c2c1CC(OCc1ccccc1)CC2` (centres unmarked) gave an IC50 of less than 100 µM.
Molecule `O=C(Cc1ccccc1)c1c[nH]c(C(=O)O)c1` has an IC50 of less than 100 µM.
Molecule `CC(=O)c1c[nH]c(C(=O)O)c1` has an IC50 of less than 100 µM.
For `Cc1cc(C)c(C(=O)O)[nH]1`, the IC50 was greater than 100 µM.
In the case of `O=C(O)c1n[nH]c2c1CCCC2Cc1ccccc1` (centres unmarked), the IC50 is reported as less than 10 µM.
`CC1CCc2[nH]nc(C(=O)O)c2C1` (centres unmarked) gave an IC50 of less than 10 µM.
`O=C(O)c1n[nH]c2c1CCc1ccccc1-2` showed an IC50 greater than 100 µM.
In the case of `CC1(C)CCc2c(C(=O)O)n[nH]c21` [Compound 3, 6,6-Dimethyl-1,4,5,6-tetrahydrocyclopentapyrazole-3-carboxylic acid], the IC50 is reported as less than 10 µM.
`CC1CCc2c(C(=O)O)n[nH]c21` (centres unmarked) [Compound 6, 6-methyl-1,4,5,6-tetrahydrocyclopentapyrazole-3-carboxylic acid] showed an IC50 of less than 10 µM.
With `O=C(O)c1n[nH]c2c1CCCCC2` [Compound 15, 1,4,5,6,7,8-Hexahydrocycloheptapyrazole-3-carboxylic acid] the IC50 was less than 10 µM.
`CC(C)CCCc1cc(C(=O)O)n[nH]1` [Compound 18, 5-(4-methylpentyl)-1H-pyrazole-3-carboxylic acid] showed an IC50 of less than 1 µM.
With `O=C(O)c1cc(CCc2ccccc2)[nH]n1` [Compound 21, 5-phenethyl-1H-pyrazole-3-carboxylic acid] the IC50 was less than 1 µM.
With `COc1ccc(CCc2cc(C(=O)O)n[nH]2)cc1` [Compound 24, 5-[2-(4-Methoxyphenyl)-ethyl]-1H-pyrazole-3-carboxylic acid] the IC50 was less than 1 µM.
`O=C(O)c1ccc(Cc2ccccc2)[nH]1` [Compound 32, 5-benzyl-1H-pyrrole-2-carboxylic acid] gave an IC50 greater than 100 µM.
For `O=C(O)c1ccc(CCc2ccccc2)[nH]1` [Compound 36, 5-phenethyl-1H-pyrrole-2-carboxylic acid], the IC50 was less than 100 µM.
Work on `O=C(O)c1cc(COc2ccccc2)[nH]n1` [Compound 42, 5-phenoxymethyl-1H-pyrazole-3-carboxylic acid] yielded an IC50 of less than 1 µM.
`O=C(O)c1cc(CCCc2ccccc2)c[nH]1` [Compound 45, 4-(3-phenylpropyl)-1H-pyrrole-2-carboxylic acid] gave an IC50 of less than 100 µM.
For `CC(C)CCc1cc(C(=O)O)n[nH]1` [Compound 48, 5-(3-methylbutyl)-1H-pyrazole-3-carboxylic acid], the IC50 was less than 10 µM.
`CC(C)=CCCc1cc(C(=O)O)n[nH]1` [Compound 51, 5-(4-Methylpent-3-enyl)-1H-pyrazole-3-carboxylic acid] showed an IC50 of less than 1 µM.
`CC1CCCC(C)(C)C1CCc1cc(C(=O)O)n[nH]1` (centres unmarked) [Compound 54, 5-[2-(2,2,6-trimethylcyclohexyl)-ethyl]-1H-pyrazole-3-carboxylic acid] gave an IC50 of less than 100 µM.
`CC(Cc1cc(C(=O)O)n[nH]1)c1ccccc1` (centres unmarked) [Compound 58, 5-(2-phenylpropyl)-1H-pyrazole-3-carboxylic acid] gave an IC50 of less than 1 µM.
For `CC(Cc1ccccc1)c1cc(C(=O)O)n[nH]1` (centres unmarked) [Compound 62, 5-(1-methyl-2-phenylethyl)-1H-pyrazole-3-carboxylic acid], the IC50 was less than 1 µM.
For `O=C(O)c1cc(CCc2ccccc2Br)c[nH]1` [Compound 65, 4-[2-(2-bromophenyl)-ethyl]-1H-pyrrole-2-carboxylic acid], the IC50 was less than 1 µM.
`O=C(O)c1cc(CCc2ccc(Cl)cc2)n[nH]1` [Compound 69, 5-[2-(4-Chlorophenyl)-ethyl]-1H-pyrazole-3-carboxylic acid] gave an IC50 of less than 1 µM.
In the case of `O=C(O)c1cc(CCc2ccc(Cl)cc2)c(Br)[nH]1` [Compound 70, 5-bromo-4-[2-(4-chlorophenyl)-ethyl]-1H-pyrrole-2-carboxylic acid], the IC50 is reported as less than 0.1 µM.
Molecule `O=C(O)c1cc(CCc2ccc(F)cc2)c[nH]1` [Compound 73, 4-[2-(4-fluorophenyl)-ethyl]-1H-pyrrole-2-carboxylic acid] has an IC50 of less than 1 µM.
`O=C(O)c1cc(CCCC2CCCC2)c[nH]1` [Compound 76, 4-(3-Cyclopentylpropyl)-1H-pyrrole-2-carboxylic acid] gave an IC50 of less than 10 µM.
Molecule `C[C@@H](Cc1cc(C(=O)O)n[nH]1)c1ccccc1` [Compound 80, (S)-5-(2-phenylpropyl)-1H-pyrazole-3-carboxylic acid] has an IC50 of less than 10 µM.
`O=C(O)c1n[nH]c2c1CCC2` [drawing 44] showed an IC50 of less than 1 µM.

System: not listed separately
Assay: Rat brain uptake, carotid perfusion
Type: in vivo
Conditions: 30 second perfusion into left hemisphere, PBS pH 7.4; N of 4 rats
Description: Experiments that evaluate the rat brain penetration of test compounds use a perfusion system where the left carotid artery is cannulated and the branch arteries are tied off. The test compound plus internal controls are perfused for 30 seconds into the left hemisphere in phosphate buffered saline at pH 7.4. The internal controls are atenolol (with low brain uptake) and antipyrine (with high brain uptake). After a 30 second washout with perfusate, the brain is removed surgically. The left hemisphere is homogenized; test compounds (plus internal controls) are extracted from brain homogenate, and analyzed using LC/MS/MS to determine the concentration of test compound and internal controls in the brain.
With `CC(C)CCCc1cc(C(=O)O)n[nH]1` [Compound 18, 5-(4-methylpentyl)-1H-pyrazole-3-carboxylic acid] the “Rat Brain Uptake Rate, pmol/g brain/sec” value was 17 pmol/g brain/sec.
For `O=C(O)c1cc(CCc2ccccc2)[nH]n1` [Compound 21, 5-phenethyl-1H-pyrazole-3-carboxylic acid], the “Rat Brain Uptake Rate, pmol/g brain/sec” value was 6 pmol/g brain/sec.
In the case of `O=C(O)c1cc(CCc2ccc(Cl)cc2)c[nH]1` [Compound 39, 4-[2-(4-chlorophenyl)-ethyl]-1H-pyrrole-2-carboxylic acid], the “Rat Brain Uptake Rate, pmol/g brain/sec” value is reported as 204 pmol/g brain/sec.
In the case of `O=C(O)c1n[nH]c2c1CCC2` [drawing 70], the “Rat Brain Uptake Rate, pmol/g brain/sec” value is reported as 6 pmol/g brain/sec.
